Source: patent US20230093861A1, “RAPAMYCIN ANALOGS AS MTOR INHIBITORS” (Revolution Medicines, Inc., priority 2017, published 2023)
Read-outs that look alike come from different tables or passages of the source.

Tests used:
[1] = test system: P-Akt (S473); assay: Cell based AlphaLISA assay, inhibition of P-Akt (S473) (mTORC2 substrate phosphorylation) in MDA-MB-468 cells; details: Homo sapiens, AlphaLISA, two to four hours at 37° C., read-out: pIC50 for Inhibition of mTORC1 and mTORC2 Substrate Phosphorylation, p-AKT 1/2/3 -(S473) (converted)
How it was run: (§1)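 IC50s come from control-normalized curve fits of duplicate Alpha signals. Cell lysates were probed with SureFire Ultra kits for mTORC1 substrates 4E-BP1 T37/46 and P70S6K T389 and mTORC2 substrate Akt S473 in MDA-MB-468 cells exposed to inhibitor.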

[2] = test system: P-P70S6K (T389); assay: Cell based AlphaLISA assay, inhibition of P-P70S6K (T389) (mTORC1 substrate phosphorylation) in MDA-MB-468 cells; details: Homo sapiens, 4 h, AlphaLISA, two to four hours at 37° C., read-out: pIC50 for Inhibition of mTORC1 and mTORC2 Substrate Phosphorylation, P-P70S6K-(T389) (converted)
How it was run: as §1

[3] = test system: P-4E-BP1 (T37/46); assay: Cell based AlphaLISA assay, inhibition of P-4E-BP1 (T37/46) (mTORC1 substrate phosphorylation) in MDA-MB-468 cells; details: Homo sapiens, AlphaLISA, two to four hours at 37° C., read-out: pIC50 for Inhibition of mTORC1 and mTORC2 Substrate Phosphorylation, P-4E-BP1-(T37/46) (converted)
How it was run: as §1

SMILES | IC50 ([1]; MDA-MB-468, 4 h) | IC50 [2] | IC50 ([3]; MDA-MB-468, 4 h) | IC50 ([1]; 4 h) | IC50 ([3]; 4 h)
CO[C@H]1C[C@@H]2CC[C@@H](C)[C@@](O)(O2)C(=O)C(=O)N2CCCC[C@H]2C(=O)O[C@H]([C@H](C)C[C@@H]2CC[C@H](n3cc(-c4cccc(C(=O)NCCOCCOCCOCCOCCC(=O)NCCOCCOCCOCCOCCC(=O)NCCCCn5nc(-c6ccc7oc(N)nc7c6)c6c(N)ncnc65)c4)nn3)[C@H](OC)C2)CC(=O)[C@H](C)/C=C(\C)[C@@H](O)[C@@H](OC)C(=O)[C@H](C)C[C@H](C)/C=C/C=C/C=C/1C [Example 141] | 3.16 to 31.6 nM | 1 to 10 nM | 3.16 to 31.6 nM | – | –
COc1cccc2cc(-c3nc([C@H]4CC[C@H](C(=O)NCCOCCOCCNC(=O)CCOCCOCCOCCOCCn5cc(CCCCO[C@@H]6CC[C@@H](C[C@@H](C)[C@@H]7C[C@@H](OC)[C@H](C)/C=C(\C)[C@@H](O)[C@@H](OC)C(=O)[C@H](C)C[C@H](C)/C=C/C=C/C=C(\C)[C@@H](OC)C[C@@H]8CC[C@@H](C)[C@@](O)(O8)C(=O)C(=O)N8CCCC[C@H]8C(=O)O7)C[C@H]6OC)nn5)CC4)n4ncnc(N)c34)[nH]c12 [Example 188] | 31.6 to 1000 nM | < 1 nM | < 3.16 nM | – | –
CO[C@H]1C[C@@H]2CC[C@@H](C)[C@@](O)(O2)C(=O)C(=O)N2CCCC[C@H]2C(=O)O[C@H]([C@H](C)C[C@@H]2CC[C@H](n3cc(CCCC(=O)NCCOCCOCCOCCC(=O)NCCOCCOCCOCCC(=O)NCCCCn4nc(-c5cc6cc(O)ccc6[nH]5)c5c(N)ncnc54)nn3)[C@H](OC)C2)C/C(=N/OCc2ccccc2)[C@H](C)/C=C(\C)[C@@H](O)[C@@H](OC)C(=O)[C@H](C)C[C@H](C)/C=C/C=C/C=C/1C [Example 175] | > 1000 nM | > 1000 nM | > 1000 nM | – | –
CCO[C@@H]1C[C@@H]([C@H](C)C[C@@H]2CC[C@H](n3cc(CCCC(=O)NCCOCCOCCOCCC(=O)NCCOCCOCCOCCC(=O)NCCCCn4nc(-c5cc6cc(O)ccc6[nH]5)c5c(N)ncnc54)nn3)[C@H](OC)C2)OC(=O)[C@@H]2CCCCN2C(=O)C(=O)[C@]2(O)O[C@@H](CC[C@H]2C)C[C@H](OC)/C(C)=C/C=C/C=C/[C@@H](C)C[C@@H](C)C(=O)[C@H](OC)[C@H](O)/C(C)=C/[C@H]1C [Example 168] | > 1000 nM | 10 to 1000 nM | 31.6 to 1000 nM | – | –
CO[C@H]1C[C@@H]2CC[C@@H](C)[C@@](O)(O2)C(=O)C(=O)N2CCCC[C@H]2C(=O)O[C@H]([C@H](C)C[C@@H]2CC[C@H](n3cc(COC(=O)NCCOCCOCCC(=O)NCc4cnc(N5CCN(c6ncc(C(=O)NCCCCn7nc(-c8cc9cc(O)ccc9[nH]8)c8c(N)ncnc87)cn6)CC5)nc4)nn3)[C@H](OC)C2)CC(=O)[C@H](C)/C=C(\C)[C@@H](O)[C@@H](OC)C(=O)[C@H](C)C[C@H](C)/C=C/C=C/C=C/1C [Example 182] | > 1000 nM | < 1 nM | > 1000 nM | – | –
CO[C@H]1C[C@@H]2CC[C@@H](C)[C@@](O)(O2)C(=O)C(=O)N2CCCC[C@H]2C(=O)O[C@H]([C@H](C)C[C@@H]2CC[C@H](n3cc(COC(=O)NCCOCCOCCOCCC(=O)NCc4cnc(N5CCN(c6ncc(C(=O)NCCCCn7nc(-c8ccc9oc(N)nc9c8)c8c(N)ncnc87)cn6)CC5)nc4)nn3)[C@H](OC)C2)CC(=O)[C@H](C)/C=C(\C)[C@@H](O)[C@@H](OC)C(=O)[C@H](C)C[C@H](C)/C=C/C=C/C=C/1C [Example 183] | 3.16 to 31.6 nM | < 1 nM | < 3.16 nM | – | –
CO[C@H]1C[C@@H]2CC[C@@H](C)[C@@](O)(O2)C(=O)C(=O)N2CCCC[C@H]2C(=O)O[C@H]([C@H](C)C[C@@H]2CC[C@H](n3cc(-c4cnc(N5CCN(c6ncc(C(=O)NCCOCCOCCC(=O)NCCCCn7nc(-c8cc9cc(O)ccc9[nH]8)c8c(N)ncnc87)cn6)CC5)nc4)nn3)[C@H](OC)C2)CC(=O)[C@H](C)/C=C(\C)[C@@H](O)[C@@H](OC)C(=O)[C@H](C)C[C@H](C)/C=C/C=C/C=C/1C [Example 112] | > 1000 nM | < 1 nM | > 1000 nM | – | –
CO[C@H]1C[C@@H]2CC[C@@H](C)[C@@](O)(O2)C(=O)C(=O)N2CCCC[C@H]2C(=O)O[C@H]([C@H](C)C[C@@H]2CC[C@@H](OCc3cccc(-c4cnc(N5CCN(Cc6cn(CCOCCOCCOCCOCCOCCC(=O)NCCCCn7nc(-c8ccc9oc(N)nc9c8)c8c(N)ncnc87)nn6)C(CO)C5)nc4)c3)[C@H](OC)C2)CC(=O)[C@H](C)/C=C(\C)[C@@H](O)[C@@H](OC)C(=O)[C@H](C)C[C@H](C)/C=C/C=C/C=C/1C (stereo partly drawn) [Example 23] | < 3.16 nM | < 1 nM | < 3.16 nM | – | –
COc1ccc(-c2ccc3ncc4c(c3c2)n(-c2ccc(N3CCN(C(=O)CCOCCOCCOCCOCCOCCOCCn5cc(CCCCO[C@@H]6CC[C@@H](C[C@@H](C)[C@@H]7CC(=O)[C@H](C)/C=C(\C)[C@@H](O)[C@@H](OC)C(=O)[C@H](C)C[C@H](C)/C=C/C=C/C=C(\C)[C@@H](OC)C[C@@H]8CC[C@@H](C)[C@@](O)(O8)C(=O)C(=O)N8CCCC[C@H]8C(=O)O7)C[C@H]6OC)nn5)CC3)c(C(F)(F)F)c2)c(=O)n4C)cn1 [Example 44] | – | < 1 nM | – | < 3.16 nM | < 3.16 nM
CO[C@H]1C[C@@H]2CC[C@@H](C)[C@@](O)(O2)C(=O)C(=O)N2CCCC[C@H]2C(=O)O[C@H]([C@H](C)C[C@@H]2CC[C@@H](OCCCCc3cn(CCOCCOCCOCCOCCOCCOCCOCCOCCC(=O)N4CCC(Cn5nc(-c6ccc7oc(N)nc7c6)c6c(N)ncnc65)CC4)nn3)[C@H](OC)C2)CC(=O)[C@H](C)/C=C(\C)[C@@H](O)[C@@H](OC)C(=O)[C@H](C)C[C@H](C)/C=C/C=C/C=C/1C [Example 90] | – | < 1 nM | – | < 3.16 nM | < 3.16 nM
CCO[C@@H]1C[C@@H]([C@H](C)C[C@@H]2CC[C@H](n3cc(COC(=O)NCCOCCOCCOCCC(=O)NCCOCCOCCOCCC(=O)NCCCCn4nc(-c5ccc6oc(N)nc6c5)c5c(N)ncnc54)nn3)[C@H](OC)C2)OC(=O)[C@@H]2CCCCN2C(=O)C(=O)[C@]2(O)O[C@@H](CC[C@H]2C)C[C@H](OC)/C(C)=C/C=C/C=C/[C@@H](C)C[C@@H](C)C(=O)[C@H](OC)[C@H](O)/C(C)=C/[C@H]1C [Example 149] | 31.6 to 1000 nM | 1 to 10 nM | 31.6 to 1000 nM | – | –
CO[C@H]1C[C@@H]2CC[C@@H](C)[C@@](O)(O2)C(=O)C(=O)N2CCCC[C@H]2C(=O)O[C@H]([C@H](C)C[C@@H]2CC[C@H](n3cc(COC(=O)NCCOCCOCCOCCC(=O)NCCOCCOCCOCCC(=O)NCCCCn4nc(-c5cc6cc(O)ccc6[nH]5)c5c(N)ncnc54)nn3)[C@H](OC)C2)C/C(=N/OCc2ccccc2)[C@H](C)/C=C(\C)[C@@H](O)[C@@H](OC)C(=O)[C@H](C)C[C@H](C)/C=C/C=C/C=C/1C [Example 157] | > 1000 nM | > 1000 nM | > 1000 nM | – | –
CO[C@H]1C[C@@H]2CC[C@@H](C)[C@@](O)(O2)C(=O)C(=O)N2CCCC[C@H]2C(=O)O[C@H]([C@H](C)C[C@@H]2CC[C@@H](OCCCCc3cn(CCOCCOCCOCCOCCOCCOCCOCCOCCC(=O)N4CCN(c5cc(-n6nc(-c7ccc8oc(N)nc8c7)c7c(N)ncnc76)ncn5)CC4)nn3)[C@H](OC)C2)CC(=O)[C@H](C)/C=C(\C)[C@@H](O)[C@@H](OC)C(=O)[C@H](C)C[C@H](C)/C=C/C=C/C=C/1C [Example 95] | 3.16 to 31.6 nM | < 1 nM | < 3.16 nM | – | –
CO[C@H]1C[C@@H]2CC[C@@H](C)[C@@](O)(O2)C(=O)C(=O)N2CCCC[C@H]2C(=O)O[C@H]([C@H](C)C[C@@H]2CC[C@@H](OCCCCc3cn(CCOCCOCCOCCOCCOCCOCCOCCOCCC(=O)NCCCCn4nc(-c5cnc6[nH]ccc6c5)c5c(N)ncnc54)nn3)[C@H](OC)C2)CC(=O)[C@H](C)/C=C(\C)[C@@H](O)[C@@H](OC)C(=O)[C@H](C)C[C@H](C)/C=C/C=C/C=C/1C [Example 69] | – | < 1 nM | – | 3.16 to 31.6 nM | < 3.16 nM
CO[C@H]1C[C@@H]2CC[C@@H](C)[C@@](O)(O2)C(=O)C(=O)N2CCCC[C@H]2C(=O)O[C@H]([C@H](C)C[C@@H]2CC[C@H](n3cc(COC(=O)NCCOCCOCCOCCC(=O)NCCOCCOCCOCCOCCC(=O)NCCCCn4nc(-c5ccc6oc(N)nc6c5)c5c(N)ncnc54)nn3)[C@H](OC)C2)CC(=O)[C@H](C)/C=C(\C)[C@@H](O)[C@@H](OC)C(=O)[C@H](C)C[C@H](C)/C=C/C=C/C=C/1C [Example 124] | 3.16 to 31.6 nM | 1 to 10 nM | 3.16 to 31.6 nM | – | –
CO[C@H]1C[C@@H]2CC[C@@H](C)[C@@](O)(O2)C(=O)C(=O)N2CCCC[C@H]2C(=O)O[C@H]([C@H](C)C[C@@H]2CC[C@H](n3cc(CCCC(=O)N(C)CCOCCOCCOCCC(=O)N(C)CCOCCOCCC(=O)N(C)CCCCn4nc(-c5ccc6oc(N)nc6c5)c5c(N)ncnc54)nn3)[C@H](OC)C2)CC(=O)[C@H](C)/C=C(\C)[C@@H](O)[C@@H](OC)C(=O)[C@H](C)C[C@H](C)/C=C/C=C/C=C/1C [Example 180] | > 1000 nM | 1 to 10 nM | > 1000 nM | – | –
